# Reference: paper PMC7914897, “Cytotoxic Potential of a-Azepano- and 3-Amino-3,4-SeCo-Triterpenoids” (International Journal of Molecular Sciences, 2021)
# Where two headings read alike, the source gives them in different places.
# Experiments:
# Prostate cancer subpanel = assay: NCI-60 screen, subpanel; details: Homo sapiens; for IC (TGI): 48 h, read-out: TGI MG_MID; for GI50: read-out: GI50 MG_MID
# EKVX (NSC lung cancer) = assay: NCI-60 screen (SRB, 48 h); details: Homo sapiens; for IC (TGI): 48 h, read-out: TGI
# MDA-MB-435 (Melanoma) = assay: NCI-60 screen (SRB, 48 h); format: cell-based
# OVCAR-4 (Ovarian cancer) = assay: NCI-60 screen (SRB, 48 h); format: cell-based; details: Homo sapiens; for IC (TGI): OVCAR-4, 48 h; for GI50: read-out: GI50
# SF-539 (CNS cancer) = assay: NCI-60 screen (SRB, 48 h); details: Homo sapiens; for GI50: SF-539
# [1] = tested on: NCI/ADR-RES (Ovarian cancer); assay: NCI-60 screen (SRB, 48 h); details: Homo sapiens
# UACC-257 (Melanoma) = assay: NCI-60 screen (SRB, 48 h); details: Homo sapiens; for GI50: UACC-257; for IC (TGI): UACC-257, 48 h, read-out: TGI
# KM12 (Colon cancer) = assay: NCI-60 screen (SRB, 48 h); details: Homo sapiens; for GI50: KM12; for IC (TGI): KM12, 48 h, read-out: TGI
# HS 578T (Breast cancer) = assay: NCI-60 screen (SRB, 48 h); details: Homo sapiens; for IC (TGI): 48 h, read-out: TGI
# K-562 (Leukemia) = assay: NCI-60 screen (SRB, 48 h); details: Homo sapiens; for GI50: K562; for CC50: K562, read-out: LC50
# [2] = tested on: NCI-H522 (NSC lung cancer); assay: NCI-60 screen (SRB, 48 h); details: Homo sapiens; for GI50: NCI-H522; for IC (TGI): NCI-H522, 48 h, read-out: TGI
# MALME-3M (Melanoma) = assay: NCI-60 screen (SRB, 48 h); details: Homo sapiens; for IC (TGI): 48 h, read-out: TGI
# HT29 (Colon cancer) = assay: NCI-60 screen (SRB, 48 h); details: Homo sapiens; for GI50: HT-29; for IC (TGI): HT-29, 48 h, read-out: TGI
# OVCAR-8 (Ovarian cancer) = assay: NCI-60 screen (SRB, 48 h); details: Homo sapiens; for GI50: OVCAR-8; for IC (TGI): OVCAR-8, 48 h, read-out: TGI
# T-47D (Breast cancer) = assay: NCI-60 screen (SRB, 48 h); details: Homo sapiens, T47D; for IC (TGI): 48 h, read-out: TGI
# SK-MEL-28 (Melanoma) = assay: NCI-60 screen (SRB, 48 h); details: Homo sapiens; for GI50: SK-MEL-28
# CNS cancer subpanel = assay: NCI-60 screen, subpanel; details: Homo sapiens; for IC (TGI): 48 h, read-out: TGI MG_MID; for GI50: read-out: GI50 MG_MID
# SF-268 (CNS cancer) = assay: NCI-60 screen (SRB, 48 h); details: Homo sapiens; for GI50: SF-268; for IC (TGI): SF-268, 48 h, read-out: TGI
# RPMI-8226 (Leukemia) = assay: NCI-60 screen (SRB, 48 h); details: Homo sapiens
# SK-MEL-5 (Melanoma) = assay: NCI-60 screen (SRB, 48 h); details: Homo sapiens; for GI50: SK-MEL-5; for IC (TGI): SK-MEL-5, 48 h, read-out: TGI
# 786-0 (Renal cancer) = assay: NCI-60 screen (SRB, 48 h); details: Homo sapiens; for GI50: 786-0; for IC (TGI): 786-0, 48 h, read-out: TGI
# HL-60(TB) (Leukemia) = assay: NCI-60 screen (SRB, 48 h); format: cell-based; details: Homo sapiens
structure (smiles),measurement,setting,value
C=C(C)[C@@H]1CC[C@]2(COS(=O)(=O)c3ccc(C)cc3)CC[C@]3(C)[C@@H](CC[C@@H]4[C@@]5(C)CCCNC(C)(C)[C@@H]5CC[C@]43C)[C@@H]12 [Compound 12],IC (TGI),Prostate cancer subpanel,3150 nM
same,GI50,Prostate cancer subpanel,1670 nM
same,GI50,EKVX (NSC lung cancer),1620 nM
same,IC (TGI),EKVX (NSC lung cancer),3110 nM
same,IC (TGI),"MDA-MB-435 (Melanoma); Homo sapiens, MDA-MB-435, 48 h; read-out: TGI",3190 nM
same,GI50,"MDA-MB-435 (Melanoma); Homo sapiens, MDA-MB-435; read-out: GI50",1730 nM
same,IC (TGI),OVCAR-4 (Ovarian cancer),3380 nM
same,GI50,OVCAR-4 (Ovarian cancer); OVCAR-4,1860 nM
same,GI50,SF-539 (CNS cancer),1700 nM
same,GI50,[1],1740 nM
same,GI50,UACC-257 (Melanoma),1970 nM
same,IC (TGI),UACC-257 (Melanoma),3650 nM
same,GI50,KM12 (Colon cancer),1840 nM
same,IC (TGI),KM12 (Colon cancer),3410 nM
same,GI50,HS 578T (Breast cancer),1790 nM
same,IC (TGI),HS 578T (Breast cancer),3940 nM
same,GI50,K-562 (Leukemia),1570 nM
same,CC50,K-562 (Leukemia),> 100000 nM
same,GI50,[2],1700 nM
same,IC (TGI),[2],3230 nM
same,GI50,MALME-3M (Melanoma),1840 nM
same,IC (TGI),MALME-3M (Melanoma),3790 nM
same,GI50,HT29 (Colon cancer),1930 nM
same,IC (TGI),HT29 (Colon cancer),3500 nM
same,GI50,OVCAR-8 (Ovarian cancer),1910 nM
same,IC (TGI),OVCAR-8 (Ovarian cancer),3650 nM
same,GI50,T-47D (Breast cancer),1570 nM
same,IC (TGI),T-47D (Breast cancer),3150 nM
same,GI50,SK-MEL-28 (Melanoma),2150 nM
same,IC (TGI),CNS cancer subpanel,3490 nM
same,GI50,CNS cancer subpanel,1790 nM
same,GI50,SF-268 (CNS cancer),1880 nM
same,IC (TGI),SF-268 (CNS cancer),3790 nM
same,GI50,RPMI-8226 (Leukemia); RPMI-8226,1860 nM
same,IC (TGI),"RPMI-8226 (Leukemia); RPMI-8226, 48 h, read-out: TGI",4540 nM
same,CC50,"RPMI-8226 (Leukemia); RPMI-8226, read-out: LC50",> 100000 nM
same,GI50,SK-MEL-5 (Melanoma),1670 nM
same,IC (TGI),SK-MEL-5 (Melanoma),3080 nM
same,GI50,786-0 (Renal cancer),1920 nM
same,IC (TGI),786-0 (Renal cancer),3590 nM
C=C(C)[C@@H]1CC[C@]2(C)[C@H](CC=C3[C@@H]4[C@@H](C)[C@H](C)CC[C@]4(CO)CC[C@]32C)[C@@]1(C)CCCN [Compound 19],IC (TGI),Prostate cancer subpanel,5250 nM
same,GI50,Prostate cancer subpanel,1430 nM
same,CC50,Prostate cancer subpanel; read-out: LC50 MG_MID,18600 nM
same,GI50,EKVX (NSC lung cancer),1080 nM
same,IC (TGI),EKVX (NSC lung cancer),2940 nM
same,CC50,EKVX (NSC lung cancer); read-out: LC50,26500 nM
same,GI50,"MDA-MB-435 (Melanoma); Homo sapiens, MDA-MB-435",950 nM
same,IC (TGI),"MDA-MB-435 (Melanoma); Homo sapiens, MDA-MB-435, 48 h, read-out: TGI",1810 nM
same,CC50,"MDA-MB-435 (Melanoma); Homo sapiens, MDA-MB-435; read-out: LC50 (the source's name)",3450 nM
same,IC (TGI),OVCAR-4 (Ovarian cancer),2850 nM
same,GI50,OVCAR-4 (Ovarian cancer); OVCAR-4,860 nM
same,CC50,"OVCAR-4 (Ovarian cancer); OVCAR-4, read-out: LC50 (the source's name)",25000 nM
same,GI50,SF-539 (CNS cancer),950 nM
same,IC (TGI),"SF-539 (CNS cancer); SF-539, 48 h, read-out: TGI",1730 nM
same,CC50,"SF-539 (CNS cancer); SF-539, read-out: LC50",3170 nM
same,GI50,[1],990 nM
same,IC (TGI),"[1]; 48 h, read-out: TGI",2170 nM
same,CC50,[1]; read-out: LC50,4770 nM
same,GI50,UACC-257 (Melanoma),1070 nM
same,IC (TGI),UACC-257 (Melanoma),2210 nM
same,CC50,"UACC-257 (Melanoma); UACC-257, read-out: LC50",4680 nM
same,GI50,KM12 (Colon cancer),910 nM
same,IC (TGI),KM12 (Colon cancer),1650 nM
same,CC50,"KM12 (Colon cancer); KM12, read-out: LC50",3000 nM
same,GI50,HS 578T (Breast cancer),990 nM
same,IC (TGI),HS 578T (Breast cancer),2230 nM
same,CC50,HS 578T (Breast cancer); read-out: LC50,5000 nM
same,GI50,K-562 (Leukemia),1220 nM
same,IC (TGI),"K-562 (Leukemia); K562, 48 h, read-out: TGI",3630 nM
same,CC50,K-562 (Leukemia),> 50000 nM
same,GI50,HL-60(TB) (Leukemia),1030 nM
same,IC (TGI),HL-60(TB) (Leukemia); 48 h,2270 nM
same,CC50,HL-60(TB) (Leukemia); read-out: LC50 (the source's name),5000 nM
same,GI50,[2],1040 nM
same,IC (TGI),[2],2170 nM
same,CC50,"[2]; NCI-H522, read-out: LC50",4540 nM
same,GI50,MALME-3M (Melanoma),730 nM
same,IC (TGI),MALME-3M (Melanoma),1420 nM
same,CC50,MALME-3M (Melanoma); read-out: LC50,2740 nM
same,GI50,HT29 (Colon cancer),990 nM
same,IC (TGI),HT29 (Colon cancer),2040 nM
same,CC50,"HT29 (Colon cancer); HT-29, read-out: LC50",4220 nM
same,GI50,OVCAR-8 (Ovarian cancer),1160 nM
same,IC (TGI),OVCAR-8 (Ovarian cancer),2800 nM
same,CC50,"OVCAR-8 (Ovarian cancer); OVCAR-8, read-out: LC50",> 50000 nM
same,GI50,T-47D (Breast cancer),1510 nM
same,IC (TGI),T-47D (Breast cancer),5150 nM
same,CC50,T-47D (Breast cancer); read-out: LC50,> 50000 nM
same,GI50,SK-MEL-28 (Melanoma),950 nM
same,IC (TGI),"SK-MEL-28 (Melanoma); SK-MEL-28, 48 h, read-out: TGI",1670 nM
same,CC50,"SK-MEL-28 (Melanoma); SK-MEL-28, read-out: LC50",2940 nM
same,IC (TGI),CNS cancer subpanel,3260 nM
same,GI50,CNS cancer subpanel,1150 nM
same,CC50,CNS cancer subpanel; read-out: LC50 MG_MID,12600 nM
same,GI50,SF-268 (CNS cancer),1220 nM
same,IC (TGI),SF-268 (CNS cancer),2690 nM
same,CC50,"SF-268 (CNS cancer); SF-268, read-out: LC50",14800 nM
same,GI50,SK-MEL-5 (Melanoma),910 nM
same,IC (TGI),SK-MEL-5 (Melanoma),1650 nM
same,CC50,"SK-MEL-5 (Melanoma); SK-MEL-5, read-out: LC50",3000 nM
same,GI50,786-0 (Renal cancer),840 nM
same,IC (TGI),786-0 (Renal cancer),1580 nM
same,CC50,"786-0 (Renal cancer); 786-0, read-out: LC50",2970 nM
